Test results: ChEMBL document CHEMBL5030535, “Conjugates Derived from Lapatinib Derivatives with Cancer Cell Stemness Inhibitors Effectively Reversed Drug Resistance in Triple-Negative Breast Cancer” (J Med Chem, 2021)
Activity calls are given as the source filed them. No cut-off for these calls is given here.

Assays:
[1] = biological target: T1, Epidermal growth factor receptor (Homo sapiens, UniProt P00533); test: Inhibition of human EGFR in human drug-tolerant MDA-MB-231/lapatinib cells assessed as inhibition of phosphorylation Akt1/2/3 at Ser473 of measured after 24 hrs by Western blot analysis; conditions: dose 5-20 µM
MDA-MB-231 [2] = test: Antiproliferative activity against drug-tolerant human MDA-MB-231/lapatinib cells assessed as CD44+/CD24- cells measured at 20 uM after 24 hrs by MTT assay; assay type: functional
MDA-MB-231 [3] = test: Inhibition of cell stemness in drug-tolerant human MDA-MB-231/lapatinib cells assessed as inhibition of ALDH1A1 expression at 20 uM after 24 hrs by flow cytometry; assay type: functional
MDA-MB-231 [4] = test: Cell cycle arrest in human drug-tolerant MDA-MB-231/lapatinib cells assessed as accumulation at G0-G1phase at 20 uM incubated for 24 hrs by PI staining based flow cytometry; assay type: functional
[5] = Octanol/water partition coefficient, log P of the compound by shake flask method based thermodynamic solubility assay; assay type: physicochemical
MDA-MB-231 [6] = test: Inhibition of cell stemness in human drug-tolerant MDA-MB-231/lapatinib cells assessed as inhibition of SOX-2 expression at 20 uM after 24 hrs by qRT-PCR analysis; assay type: functional, cell-based
MDA-MB-231 [7] = test: Inhibition of Wnt/beta-Catenin signaling in drug-tolerant human MDA-MB-231/lapatinib cells assessed as reduction in cyclin D1 mRNA level at 20 uM incubated for 24 hrs by qRT-PCR analysis
MDA-MB-231 [8] = test: Antiproliferative activity against drug-tolerant human MDA-MB-231/lapatinib cells assessed as CD44-positive cells measured after 24 hrs by MTT assay; assay type: functional, cell-based; conditions: MDA-MB-231, 24 h
[9] = biological target: T1, Epidermal growth factor receptor; test: Inhibition of human EGFR phosphorylation in human MDA-MB-231 cells measured after 24 hrs by Western blot analysis; assay type: cell-based; conditions: dose 5-20 µM
MDA-MB-231 [10] = test: Inhibition of cell stemness in human drug-tolerant MDA-MB-231/lapatinib cells assessed as inhibition of Kif4 expression at 20 uM after 24 hrs by qRT-PCR analysis; assay type: functional, cell-based
[11] = biological target: T2, Aldehyde dehydrogenase 1A1 (Homo sapiens, UniProt P00352); test: Inhibition of ALDH1A1 in human drug-tolerant MDA-MB-231/lapatinib cells assessed as after 24 hrs
T2 sequence (P00352 whole entry): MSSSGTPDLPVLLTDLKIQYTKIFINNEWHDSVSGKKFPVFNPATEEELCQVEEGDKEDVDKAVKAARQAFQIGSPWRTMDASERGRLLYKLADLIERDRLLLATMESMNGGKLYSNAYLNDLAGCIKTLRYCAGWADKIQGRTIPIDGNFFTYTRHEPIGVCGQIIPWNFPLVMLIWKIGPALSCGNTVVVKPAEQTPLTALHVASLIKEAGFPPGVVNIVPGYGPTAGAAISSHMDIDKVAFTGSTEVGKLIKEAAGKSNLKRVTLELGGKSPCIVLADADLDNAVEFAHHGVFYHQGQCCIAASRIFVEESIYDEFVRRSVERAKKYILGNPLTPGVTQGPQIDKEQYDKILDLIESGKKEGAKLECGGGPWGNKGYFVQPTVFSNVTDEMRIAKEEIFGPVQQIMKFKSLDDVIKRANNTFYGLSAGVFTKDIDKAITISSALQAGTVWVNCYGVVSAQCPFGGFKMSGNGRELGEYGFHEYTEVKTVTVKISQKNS

MDA-MB-231 [12] = test: Antiproliferative activity against human MDA-MB-231 cells assessed as inhibition of cell growth measured after 72 hrs by MTT assay; assay type: functional, cell-based; conditions: MDA-MB-231, 72 h
[13] = biological target: T1, Epidermal growth factor receptor; test: Inhibition of human EGFR in human MDA-MB-231 cells assessed as inhibition of phosphorylation Akt1/2/3 at Ser473 of measured after 24 hrs by Western blot analysis; assay type: cell-based; conditions: dose 5-20 µM
MDA-MB-231 [14] = test: Inhibition of colony formation in human drug-tolerant MDA-MB-231/lapatinib cells at 5 uM measured after 24 hrs; assay type: functional
MDA-MB-231 [15] = test: Induction apoptosis in MDA-MB-231/ lapatinib cells assessed as apoptotic cells at 20 uM measured after 24 hrs by propidium iodide staining based flow cytometric analysis; assay type: functional, cell-based; conditions: Homo sapiens
MDA-MB-231 [16] = test: Inhibition of cell stemness in drug-tolerant human MDA-MB-231/lapatinib cells assessed as inhibition of Jagged expression at 20 uM after 24 hrs by flow cytometry; assay type: functional, cell-based
MCF7 = test: Antiproliferative activity against human MCF7 cells assessed as inhibition of cell growth measured after 72 hrs by MTT assay; assay type: functional, cell-based; conditions: MCF7, 72 h
MDA-MB-231 [17] = test: Inhibition of Wnt/beta-Catenin signaling in drug-tolerant human MDA-MB-231/lapatinib cells assessed as increase in nuclear expression of p-beta-catenin level at 20 uM incubated for 24 hrs by Western blot analysis
MDA-MB-231 [18] = test: Inhibition of cell stemness in human drug-tolerant MDA-MB-231/lapatinib cells assessed as inhibition of CD44+/CD24- expression at 20 uM after 24 hrs by flow cytometry analysis; assay type: functional
MDA-MB-231 [19] = test: Inhibition of Wnt/beta-Catenin signaling in drug-tolerant human MDA-MB-231/lapatinib cells assessed as reduction in beta-catenin level at 20 uM incubated for 24 hrs by Western blot analysis
MDA-MB-231 [20] = test: Antiproliferative activity against human drug tolerant MDA-MB-231/lapatinib cells assessed as inhibition of cell growth in measured after 72 hrs by MTT assay; assay type: functional, cell-based; conditions: MDA-MB-231, 72 h
MDA-MB-231 [21] = test: Inhibition of cell invasion in human MDA-MB-231/lapatinib cells at 20 uM; assay type: functional
MDA-MB-231 [22] = test: Induction of apoptosis in drug-tolerant human MDA-MB-231 cells/lapatinib cells assessed as apoptotic rate at 20 uM measured after 24 hrs by flow cytometry; assay type: functional
MDA-MB-231 [23] = test: Cell cycle arrest in human MDA-MB-231 cells assessed as accumulation at G0-G1phase at 20 uM incubated for 24 hrs by PI staining based flow cytometry; assay type: functional
MDA-MB-231 [24] = test: Inhibition of cell stemness in drug-tolerant human MDA-MB-231/lapatinib cells assessed as inhibition of Notch expression at 20 uM after 24 hrs by flow cytometry; assay type: functional, cell-based
MDA-MB-231 [25] = test: Inhibition of Wnt/beta-Catenin signaling in drug-tolerant human MDA-MB-231/lapatinib cells assessed as reduction in MMP7 mRNA level at 20 uM incubated for 24 hrs by qRT-PCR analysis; assay type: tissue-based
HUVEC = test: Antiproliferative activity against human HUVEC cells assessed as inhibition of cell growth in measured after 72 hrs by MTT assay; assay type: cell-based
MDA-MB-231 [26] = test: Inhibition of Wnt/beta-Catenin signaling in drug-tolerant human MDA-MB-231/lapatinib cells assessed as reduction in p-GSK3beta level at 20 uM incubated for 24 hrs by Western blot analysis
MDA-MB-231 [27] = test: Inhibition of cell stemness in human drug-tolerant MDA-MB-231/lapatinib cells assessed as inhibition of OCT4 expression at 20 uM after 24 hrs by qRT-PCR analysis; assay type: functional, cell-based
MDA-MB-231 [28] = test: Inhibition of Wnt/beta-Catenin signaling in drug-tolerant human MDA-MB-231/lapatinib cells assessed as reduction in S100A4 mRNA level at 20 uM incubated for 24 hrs by qRT-PCR analysis
[29] = biological target: T1, Epidermal growth factor receptor; test: Inhibition of exogenous EGFR (unknown origin)
[30] = Resistant factor, ratio of IC50 for antiproliferative activity against drug-tolerant human MDA-MB-231 cells to IC50 for human MDA-MB-231 cells; assay type: functional
MDA-MB-231 [31] = test: Inhibition of Wnt/beta-Catenin signaling in drug-tolerant human MDA-MB-231/lapatinib cells assessed as reduction in c-Myc mRNA level at 20 uM incubated for 24 hrs by qRT-PCR analysis
[32] = biological target: T1, Epidermal growth factor receptor; test: Inhibition of human EGFR phosphorylation in human drug-tolerant MDA-MB-231/lapatinib cells measured after 24 hrs by Western blot analysis; conditions: dose 5-20 µM
[33] = biological target: T1, Epidermal growth factor receptor; test: Inhibition of human EGFR in human drug-tolerant MDA-MB-231/lapatinib cells assessed as inhibition of phosphorylation ERK1/2 at T202/Y204 of measured after 24 hrs by Western blot analysis; conditions: dose 5-20 µM
[34] = biological target: T1, Epidermal growth factor receptor; test: Inhibition of human EGFR in human MDA-MB-231 cells assessed as inhibition of phosphorylation ERK1/2 at T202/Y204 of measured after 24 hrs by Western blot analysis; assay type: cell-based; conditions: dose 5-20 µM

T1 sequence (P00533 whole entry): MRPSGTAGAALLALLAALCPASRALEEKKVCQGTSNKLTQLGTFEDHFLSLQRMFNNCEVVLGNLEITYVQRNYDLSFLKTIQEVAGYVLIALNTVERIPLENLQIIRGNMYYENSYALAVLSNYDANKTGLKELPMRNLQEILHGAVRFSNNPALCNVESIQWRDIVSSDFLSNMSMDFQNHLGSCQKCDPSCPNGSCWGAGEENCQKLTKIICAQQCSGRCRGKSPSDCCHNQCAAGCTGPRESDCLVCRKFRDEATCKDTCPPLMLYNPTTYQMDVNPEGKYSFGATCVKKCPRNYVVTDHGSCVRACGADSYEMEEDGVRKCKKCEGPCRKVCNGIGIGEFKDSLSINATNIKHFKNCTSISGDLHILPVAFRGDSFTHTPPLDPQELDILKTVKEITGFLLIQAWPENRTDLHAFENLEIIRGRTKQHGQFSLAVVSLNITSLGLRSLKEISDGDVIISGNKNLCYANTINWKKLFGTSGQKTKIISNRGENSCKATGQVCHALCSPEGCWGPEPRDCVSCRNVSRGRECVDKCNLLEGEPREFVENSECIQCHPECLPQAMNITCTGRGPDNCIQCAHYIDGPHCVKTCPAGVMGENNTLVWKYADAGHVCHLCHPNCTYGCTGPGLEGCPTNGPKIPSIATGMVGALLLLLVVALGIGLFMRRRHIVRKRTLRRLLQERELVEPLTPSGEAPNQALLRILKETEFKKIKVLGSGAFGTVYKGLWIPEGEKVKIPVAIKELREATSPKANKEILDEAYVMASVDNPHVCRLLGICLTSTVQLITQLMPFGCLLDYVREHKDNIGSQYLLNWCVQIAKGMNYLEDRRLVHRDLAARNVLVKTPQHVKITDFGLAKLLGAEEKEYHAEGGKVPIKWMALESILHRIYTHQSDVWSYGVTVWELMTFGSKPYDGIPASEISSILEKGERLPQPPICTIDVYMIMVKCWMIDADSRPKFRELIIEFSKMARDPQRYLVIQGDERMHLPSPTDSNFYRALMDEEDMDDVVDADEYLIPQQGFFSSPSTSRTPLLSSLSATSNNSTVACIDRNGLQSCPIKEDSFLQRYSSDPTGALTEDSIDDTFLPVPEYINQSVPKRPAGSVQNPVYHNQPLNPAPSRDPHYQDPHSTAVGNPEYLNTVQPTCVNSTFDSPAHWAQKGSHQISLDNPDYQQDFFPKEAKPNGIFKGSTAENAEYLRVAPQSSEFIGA

In the case of `CC(OC(=O)CCCC(=O)N(CCS(C)(=O)=O)Cc1ccc(-c2ccc3ncnc(Nc4ccc(OCc5cccc(F)c5)c(Cl)c4)c3c2)o1)c1cc2c(o1)C(=O)c1ccccc1C2=O` (stereo unspecified), the inhibition [1] is reported as “Dose-Dependent Effect”, the inhibition at 20 µM (MDA-MB-231 [2]) is reported as 52.2% and the inhibition at 20 µM (MDA-MB-231 [3]) is reported as 71.2%. For the same compound, the Activity (MDA-MB-231 [4]) was “Active”, the logP [5] was 2.15 and the inhibition (MDA-MB-231 [6]) was “Active”. For the same compound, the inhibition (MDA-MB-231 [7]) was “Active”, the IC50 (MDA-MB-231 [8]) was 2.03 µM and the inhibition [9] was “Dose-Dependent Effect”. For the same compound, the inhibition (MDA-MB-231 [10]) was “Active”, the IC50 [11] was 0.135 µM and the IC50 (MDA-MB-231 [12]) was 2.04 µM. For the same compound, the inhibition [13] was “Active”, the inhibition at 5 µM (MDA-MB-231 [14]) was 10.9% and the Activity (MDA-MB-231 [15]) was “Active”. The inhibition (MDA-MB-231 [16]) was “Active”, the IC50 (MCF7) was 3.86 µM and the inhibition (MDA-MB-231 [17]) was “Active”. For the same compound, the inhibition at 20 µM (MDA-MB-231 [18]) was 2.03%, the inhibition (MDA-MB-231 [19]) was “Active” and the IC50 (MDA-MB-231 [20]) was 1.69 µM. The inhibition at 20 µM (MDA-MB-231 [21]) was 77.3%, the Activity (MDA-MB-231 [22]) was “Active” and the Activity (MDA-MB-231 [23]) was “Active”. The inhibition (MDA-MB-231 [24]) was “Active”, the inhibition (MDA-MB-231 [25]) was “Active” and the IC50 (HUVEC) was 63.3 µM. The inhibition (MDA-MB-231 [26]) was “Active”, the inhibition (MDA-MB-231 [27]) was “Active” and the inhibition (MDA-MB-231 [28]) was “Active”. The IC50 [29] was 0.00736 µM, the “Ratio IC50” value [30] was 0.82 and the inhibition (MDA-MB-231 [31]) was “Active”. The inhibition [32] was “Dose-Dependent Effect”, the inhibition [33] was “Dose-Dependent Effect” and the inhibition [34] was “Active”.
